Measurements reported in EPA's ToxValDB 9.5 (doi:10.2903/j.efsa.2015.4060).

Tests used:
Apis mellifera = conditions: acute, mortality
Daphnia magna = conditions: chronic/long-term; duration: 21 days; reproduction
Lepomis macrochirus = conditions: acute; duration: 96 hours; mortality
Canidae = conditions: chronic; duration: 53 weeks; oral; Dog Other; organ weight
Folsomia candida = conditions: chronic/long-term; duration: 28 days
Hypoaspis aculeifer = conditions: chronic/long-term; duration: 14 days
Oncorhynchus mykiss = conditions: chronic/long-term; duration: 88 days; other

## Cc1ccc(C(C)NC(=O)[C@@H](NC(=O)OC(C)C)C(C)C)cc1 (stereo not given in full) [Iprovalicarb]
Apis mellifera; dermal
  LD50: > 200 µg/piece
Apis mellifera; oral, unspecified
  LD50: > 199 µg/piece
Daphnia magna
  NOEC: 1.89 mg/L
Rattus norvegicus; acute, oral, mortality
  LD50: > 5000 mg/kg-day
Rattus norvegicus; chronic
  NOAEL: 146 mg/kg-day
Lepomis macrochirus
  LC50: > 20.7 µg/mL
Canidae
  LOAEL: 3 mg/kg-day
Folsomia candida
  NOEC: ≥ 1000 mg/kg
Hypoaspis aculeifer
  NOEC: ≥ 1000 mg/kg
Tagia sp.; acute, duration: 14 days, mortality
  LC50: > 500 mg/kg
Tagia sp.; chronic/long-term, duration: 8 weeks
  NOEC: ≥ 64 mg/kg
Oncorhynchus mykiss
  NOEC: 5 mg/L
Colinus virginianus; acute, oral
  LD50: > 2000 mg/kg-day
Colinus virginianus; acute, oral, diet
  LC50: > 1350 mg/kg-day
Colinus virginianus; reproduction developmental
  NOAEL: 161 mg/kg-day
